Results taken from patent publication US20240238242A1, “EGCG buccal tablet and use thereof” (priority 2023, published 2024).
Where “and” joins values, the source holds several entries; their conditions need not be identical. Equal values may be shown once. Read-outs that look alike come from different tables or passages of the source.

Test system: Influenza A virus neuraminidase inhibitor-resistant strain (ZX-1109)
Assay type: cell-based

O=C(O[C@@H]1Cc2c(O)cc(O)cc2O[C@@H]1c1cc(O)c(O)c(O)c1)c1cc(O)c(O)c(O)c1 [EGCG, Epigallocatechin gallate]
+ and −: CPE test per cell well (0.2 mM EGCG + ZX1109 virus, 1 minute, second experiment, dilution factor 10^5, wells 1-10) | CPE test per cell well (0.2 mM EGCG + ZX-1109 virus, 1 minute, first experiment, dilution factor 10^5, wells 1-10) | CPE test per cell well (0.2 mM EGCG + ZX-1109 virus, 1 minute, first experiment, dilution factor 10^6, wells 1-10) | CPE test (virus replication in the cell wells) (0.2 mM EGCG + ZX-1109 virus, 1 minute, third experiment, dilution factor 10^6, wells 1-10) | CPE test (virus replication in the cell wells) (0.2 mM EGCG + ZX-1109 virus, 5 minute, second experiment, dilution factor 10^5, wells 1-10) | CPE test per cell well (0.2 mM EGCG + ZX-1109 virus, 5 minute, third experiment, dilution factor 10^6, wells 1-10) | CPE test per cell well (0.2 mM EGCG + ZX-1109 virus, 5 minute, third experiment, dilution factor 10^7, wells 1-10) | CPE test per cell well (1 mM EGCG + ZX-1109 virus, 1 minute, first experiment, dilution factor 10^5, wells 1-10) | CPE test (virus replication in the cell wells) (1 mM EGCG + ZX-1109 virus, 1 minute, third experiment, dilution factor 10^5, wells 1-10)
92.16%: average inactivation efficiency against virus (0.2 mM EGCG, ZX1109 virus, 5 minutes, three experiments)
− and +: CPE test (virus replication in the cell wells) (0.2 mM EGCG + ZX-1109 virus, 1 minute, third experiment, dilution factor 10^5, wells 1-10) | CPE test (virus replication in the cell wells) (0.2 mM EGCG + ZX-1109 virus, 5 minute, first experiment, dilution factor 10^6, wells 1-10) | CPE test (virus replication in the cell wells) (0.2 mM EGCG + ZX-1109 virus, 5 minute, first experiment, dilution factor 10^7, wells 1-10) | CPE test (virus replication in the cell wells) (0.2 mM EGCG + ZX-1109 virus, 5 minute, first experiment, dilution factor 10^8, wells 1-10) | CPE test (virus replication in the cell wells) (0.2 mM EGCG + ZX-1109 virus, 5 minute, second experiment, dilution factor 10^6, wells 1-10) | CPE test per cell well (0.2 mM EGCG + ZX-1109 virus, 5 minute, third experiment, dilution factor 10^8, wells 1-10) | CPE test per cell well (1 mM EGCG + ZX1109 virus, 1 minute, second experiment, dilution factor 10^5, wells 1-10)
10^7 TCID50/50 μL: residual virus titer of EGCG+virus group (Karber method) (0.2 mM EGCG, ZX-1109 virus, 5 minutes)
98.42% and 98.00% and 80.05%: inactivation efficiency against the virus (0.2 mM EGCG, ZX-1109 virus, 5 minutes, single experiment)
−: CPE test per cell well (0.2 mM EGCG + ZX1109 virus, 1 minute, second experiment, dilution factor 10^6, wells 1-10) | CPE test per cell well (0.2 mM EGCG + ZX1109 virus, 1 minute, second experiment, dilution factor 10^7, wells 1-10) | CPE test per cell well (0.2 mM EGCG + ZX1109 virus, 1 minute, second experiment, dilution factor 10^8, wells 1-10) | CPE test per cell well (0.2 mM EGCG + ZX-1109 virus, 1 minute, first experiment, dilution factor 10^7, wells 1-10) | CPE test per cell well (0.2 mM EGCG + ZX-1109 virus, 1 minute, first experiment, dilution factor 10^8, wells 1-10) | CPE test (virus replication in the cell wells) (0.2 mM EGCG + ZX-1109 virus, 1 minute, third experiment, dilution factor 10^7, wells 1-10) | CPE test (virus replication in the cell wells) (0.2 mM EGCG + ZX-1109 virus, 1 minute, third experiment, dilution factor 10^8, wells 1-10) | CPE test (virus replication in the cell wells) (0.2 mM EGCG + ZX-1109 virus, 5 minute, second experiment, dilution factor 10^7, wells 1-10) | CPE test per cell well (1 mM EGCG + ZX1109 virus, 1 minute, second experiment, dilution factor 10^6, wells 1-10) | CPE test per cell well (1 mM EGCG + ZX1109 virus, 1 minute, second experiment, dilution factor 10^7, wells 1-10) | CPE test per cell well (1 mM EGCG + ZX1109 virus, 1 minute, second experiment, dilution factor 10^8, wells 1-10) | CPE test per cell well (1 mM EGCG + ZX-1109 virus, 1 minute, first experiment, dilution factor 10^6, wells 1-10) | CPE test per cell well (1 mM EGCG + ZX-1109 virus, 1 minute, first experiment, dilution factor 10^7, wells 1-10) | CPE test per cell well (1 mM EGCG + ZX-1109 virus, 1 minute, first experiment, dilution factor 10^8, wells 1-10)
+: CPE test per cell well (0.2 mM EGCG + ZX1109 virus, 1 minute, second experiment, dilution factor 10^1, wells 1-10) | CPE test per cell well (0.2 mM EGCG + ZX1109 virus, 1 minute, second experiment, dilution factor 10^2, wells 1-10) | CPE test per cell well (0.2 mM EGCG + ZX1109 virus, 1 minute, second experiment, dilution factor 10^3, wells 1-10) | CPE test per cell well (0.2 mM EGCG + ZX1109 virus, 1 minute, second experiment, dilution factor 10^4, wells 1-10) | CPE test per cell well (0.2 mM EGCG + ZX-1109 virus, 1 minute, first experiment, dilution factor 10^1, wells 1-10) | CPE test per cell well (0.2 mM EGCG + ZX-1109 virus, 1 minute, first experiment, dilution factor 10^2, wells 1-10) | CPE test per cell well (0.2 mM EGCG + ZX-1109 virus, 1 minute, first experiment, dilution factor 10^3, wells 1-10) | CPE test per cell well (0.2 mM EGCG + ZX-1109 virus, 1 minute, first experiment, dilution factor 10^4, wells 1-10) | CPE test (virus replication in the cell wells) (0.2 mM EGCG + ZX-1109 virus, 1 minute, third experiment, dilution factor 10^1, wells 1-10) | CPE test (virus replication in the cell wells) (0.2 mM EGCG + ZX-1109 virus, 1 minute, third experiment, dilution factor 10^2, wells 1-10) | CPE test (virus replication in the cell wells) (0.2 mM EGCG + ZX-1109 virus, 1 minute, third experiment, dilution factor 10^3, wells 1-10) | CPE test (virus replication in the cell wells) (0.2 mM EGCG + ZX-1109 virus, 1 minute, third experiment, dilution factor 10^4, wells 1-10) | CPE test (virus replication in the cell wells) (0.2 mM EGCG + ZX-1109 virus, 5 minute, first experiment, dilution factor 10^1, wells 1-10) | CPE test (virus replication in the cell wells) (0.2 mM EGCG + ZX-1109 virus, 5 minute, first experiment, dilution factor 10^2, wells 1-10) | CPE test (virus replication in the cell wells) (0.2 mM EGCG + ZX-1109 virus, 5 minute, first experiment, dilution factor 10^3, wells 1-10) | CPE test (virus replication in the cell wells) (0.2 mM EGCG + ZX-1109 virus, 5 minute, first experiment, dilution factor 10^4, wells 1-10) | CPE test (virus replication in the cell wells) (0.2 mM EGCG + ZX-1109 virus, 5 minute, first experiment, dilution factor 10^5, wells 1-10) | CPE test (virus replication in the cell wells) (0.2 mM EGCG + ZX-1109 virus, 5 minute, second experiment, dilution factor 10^1, wells 1-10) | CPE test (virus replication in the cell wells) (0.2 mM EGCG + ZX-1109 virus, 5 minute, second experiment, dilution factor 10^2, wells 1-10) | CPE test (virus replication in the cell wells) (0.2 mM EGCG + ZX-1109 virus, 5 minute, second experiment, dilution factor 10^3, wells 1-10) | CPE test (virus replication in the cell wells) (0.2 mM EGCG + ZX-1109 virus, 5 minute, second experiment, dilution factor 10^4, wells 1-10) | CPE test per cell well (0.2 mM EGCG + ZX-1109 virus, 5 minute, third experiment, dilution factor 10^1, wells 1-10) | CPE test per cell well (0.2 mM EGCG + ZX-1109 virus, 5 minute, third experiment, dilution factor 10^2, wells 1-10) | CPE test per cell well (0.2 mM EGCG + ZX-1109 virus, 5 minute, third experiment, dilution factor 10^3, wells 1-10) | CPE test per cell well (0.2 mM EGCG + ZX-1109 virus, 5 minute, third experiment, dilution factor 10^4, wells 1-10) | CPE test per cell well (0.2 mM EGCG + ZX-1109 virus, 5 minute, third experiment, dilution factor 10^5, wells 1-10) | CPE test per cell well (1 mM EGCG + ZX1109 virus, 1 minute, second experiment, dilution factor 10^1, wells 1-10) | CPE test per cell well (1 mM EGCG + ZX1109 virus, 1 minute, second experiment, dilution factor 10^2, wells 1-10) | CPE test per cell well (1 mM EGCG + ZX1109 virus, 1 minute, second experiment, dilution factor 10^3, wells 1-10) | CPE test per cell well (1 mM EGCG + ZX1109 virus, 1 minute, second experiment, dilution factor 10^4, wells 1-10) | CPE test per cell well (1 mM EGCG + ZX-1109 virus, 1 minute, first experiment, dilution factor 10^1, wells 1-10) | CPE test per cell well (1 mM EGCG + ZX-1109 virus, 1 minute, first experiment, dilution factor 10^2, wells 1-10) | CPE test per cell well (1 mM EGCG + ZX-1109 virus, 1 minute, first experiment, dilution factor 10^3, wells 1-10) | CPE test per cell well (1 mM EGCG + ZX-1109 virus, 1 minute, first experiment, dilution factor 10^4, wells 1-10) | CPE test (virus replication in the cell wells) (1 mM EGCG + ZX-1109 virus, 1 minute, third experiment, dilution factor 10^1, wells 1-10) | CPE test (virus replication in the cell wells) (1 mM EGCG + ZX-1109 virus, 1 minute, third experiment, dilution factor 10^2, wells 1-10) | CPE test (virus replication in the cell wells) (1 mM EGCG + ZX-1109 virus, 1 minute, third experiment, dilution factor 10^3, wells 1-10) | CPE test (virus replication in the cell wells) (1 mM EGCG + ZX-1109 virus, 1 minute, third experiment, dilution factor 10^4, wells 1-10)
